From patent publication US11712438B2, “Phenyl derivatives as PGE2 receptor modulators” (IDORSIA PHARMACEUTICALS LTD, priority 2017, dated 2023)

What was measured:
Experiment in all cases: cell-based
EP2 = EP2 (Homo sapiens, UniProt P43116);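 also: SF295 glioblastoma cells with endogenous EP2 only, PGE2-stimulated cAMP accumulation read by HTRF competitive immunoassay, 45 min pre-incubation then 30 min at room temperature, IBMX in buffer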
EP4 = EP4 (Homo sapiens, UniProt P35408);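 also: inhibition of PGE2-evoked (6 nM) cAMP accumulation in BT549 breast cancer cells endogenously expressing EP4, cAMP read by HTRF competitive immunoassay after 30 min at room temperature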
From the text: Human tumor cell lines expressing endogenously either EP4 or EP2 are used and cAMP accumulation in cells upon PGE2 stimulation is monitored.
As a detection method for cAMP the HTRF (homogeneous time resolved fluorescence) Cisbio kit (HTRF cAMP dynamic 2 kit 20′000 tests Cisbio Cat. #62AM4PEC) was used, which is based on a competitive immunoassay using a Cryptate-labeled anti-cAMP antibody and d2-labeled cAMP. Native cAMP produced by cells or unlabeled cAMP (for the standard curve) compete with exogenously added d2-labeled cAMP (acceptor) for binding to monoclonal anti-cAMP-Eu3+ Cryptate (donor). A FRET signal (Fluorescence Resonance Energy Transfer) is obtained only if the labeled anti-cAMP antibody binds the d2 labelled cAMP, thus the specific signal (i.e. energy transfer) is inversely proportional to the concentration of cAMP in the standard or sample.
The BT549 cells (NCI/No. 0507282) are detached from culture dishes with a cell dissociation buffer (Invitrogen, 13151-014), and collected in growing medium (GM: RPM11640 (Invitrogen 21875)/10% FCS, 1% Penicilin/streptomycin). Cells are counted washed and resuspended in assay buffer (AB; HBSS, 20 mM HEPES, 0.2% BSA; 2 mM IBMX). 4′000 cells in 5 μl of AB are seeded per well of a small volume 384 well plate (black with flat bottom, Greiner 784076).
Stock solutions of test compounds are made at a concentration of 10 mM in DMSO, and serially diluted in DMSO to concentrations required for inhibition dose response curves (tested concentration range 30 μM-0.4 nM; 30 μM-0.015 nM or 1 μM-0.01 nM).
PGE2 (Cayman 14010, stock solution: 6 μM in DMSO) is used as agonist at 6 nM final concentration, corresponding to EC80.
Two point five microliters of diluted compounds are transferred into the assay plate. Plate is pre-incubated 45 minutes at room temperature. Subsequently, 2.5 microliters of PGE2 (final conc. 6 nM) are transferred into the assay plate. Plate is incubated 30 minutes at room temperature.
For each compound concentration the percentage of cAMP compared to DMSO control value as average±STDEV (each concentration is measured in duplicate) is calculated.
When compounds were measured multiple times, mean values are given.

PTRGER4 (EP4) = PTRGER4 (EP4) (Homo sapiens, UniProt P35408);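 also: assay plate preincubated 15 min at 37 °C, after which PGE2 was added at 20 nM final and incubation continued 120 min at 37 °C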
PTGER2 (EP2) = PTGER2 (EP2) (Homo sapiens, UniProt P43116)
Chain of PTGER2 (EP2) (P43116 whole entry): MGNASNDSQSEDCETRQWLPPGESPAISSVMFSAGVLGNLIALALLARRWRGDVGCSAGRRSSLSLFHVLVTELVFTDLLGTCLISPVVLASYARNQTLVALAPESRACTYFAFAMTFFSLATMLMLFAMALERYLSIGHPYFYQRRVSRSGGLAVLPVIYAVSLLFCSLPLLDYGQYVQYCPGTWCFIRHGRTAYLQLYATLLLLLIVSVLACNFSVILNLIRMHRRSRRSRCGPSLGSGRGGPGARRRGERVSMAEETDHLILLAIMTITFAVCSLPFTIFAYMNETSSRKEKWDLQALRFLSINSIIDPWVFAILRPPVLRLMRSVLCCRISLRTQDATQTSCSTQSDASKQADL

Chain of EP2 (P43116 whole entry): as above
Chain of PTRGER4 (EP4) (P35408 whole entry): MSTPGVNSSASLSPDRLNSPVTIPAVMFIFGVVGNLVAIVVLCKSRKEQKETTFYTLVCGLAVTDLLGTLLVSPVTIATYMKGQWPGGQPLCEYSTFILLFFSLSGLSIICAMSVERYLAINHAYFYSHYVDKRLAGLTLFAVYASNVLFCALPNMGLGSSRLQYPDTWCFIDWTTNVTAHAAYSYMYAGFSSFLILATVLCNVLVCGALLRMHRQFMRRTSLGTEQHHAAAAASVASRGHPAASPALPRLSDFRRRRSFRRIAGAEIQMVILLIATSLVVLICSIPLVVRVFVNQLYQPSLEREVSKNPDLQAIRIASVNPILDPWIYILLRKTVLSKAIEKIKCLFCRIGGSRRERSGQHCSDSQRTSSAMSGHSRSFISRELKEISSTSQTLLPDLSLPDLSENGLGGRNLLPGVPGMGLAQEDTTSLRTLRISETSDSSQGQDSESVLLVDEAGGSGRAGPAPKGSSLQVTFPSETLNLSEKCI
Chain of EP4 (P35408 whole entry): as above

| Structure (SMILES) | IC50 (EP2) [nM] | IC50 (EP4) [nM] | IC50 (PTRGER4 (EP4)) [nM] | IC50 (PTGER2 (EP2)) [nM] |
| --- | --- | --- | --- | --- |
| CCOc1cc(-c2cc(NCCc3c(F)cc(Br)cc3F)ncn2)sc1-c1noc(=O)[nH]1 [Example 110, 3-(5-{6-[2-(4-Bromo-2,6-difluoro-phenyl)-ethylamino]-pyrimidin-4-yl}-3-ethoxy-thiophen-2yl)-[1,2,4]oxadiazol-5(4H)-one] | 9 | 3 | 2 | 6 |
| CC(C)COc1cc(-c2cc(NCCc3c(F)cc(Br)cc3F)ncn2)ccc1C(=O)O [Example 237, 4-{6-[2-(4-Bromo-2,6-difluoro-phenyl)-ethylamino]-pyrimidin-4-yl}-2-isobutoxy-benzoic acid] | 128 | 668 | 419 | 72 |
| CNc1cc(-c2cc(NCCc3c(F)cc(Br)cc3F)ncn2)ccc1C(=O)O [Example 231, 4-{6-[2-(4-Bromo-2,6-difluoro-phenyl)-ethylamino]-pyrimidin-4-yl}-2-methylamino-benzoic acid] | 13 | 43 | 94 | 16 |
| CCOc1cc(-c2cc(NCCc3cc(F)c(Br)cc3F)ncn2)sc1-c1noc(=O)[nH]1 [Example 107, 3-(5-{6-[2-(4-Bromo-2,5-difluoro-phenyl)-ethylamino]-pyrimidin-4-yl}-3-ethoxy-thiophen-2yl)-[1,2,4]oxadiazol-5(4H)-one] | 11 | 7 | 2 | 10 |
| CCOc1cc(-c2cc(NCCc3ccc(C(F)(F)F)cc3OC(F)F)ncn2)sc1C(=O)O [Example 219, 5-{6-[2-(2-Difluoromethoxy-4-trifluoromethyl-phenyl)-ethylamino]-pyrimidin-4-yl}-3-ethoxy-thiophene-2-carboxylic acid] | 332 | 42 | 96 | 302 |
| CCOc1cc(-c2cc(NCCc3c(F)cc(Br)cc3OC)ncn2)sc1-c1noc(=O)[nH]1 [Example 87, 3-(5-{6-[2-(4-Bromo-2-fluoro-6-methoxy-phenyl)-ethylamino]-pyrimidin-4-yl}-3-ethoxy-thiophen-2yl)-[1,2,4]oxadiazol-5(4H)-one] | 28 | 17 | 5 | 11 |
| CCOc1cc(-c2cc(NCCc3c(F)cc(Br)cc3F)ncn2)ccc1-c1noc(=O)[nH]1 [Example 234, 3-(4-{6-[2-(4-Bromo-2,6-difluoro-phenyl)-ethylamino]-pyrimidin-4-yl}-2-ethoxy-phenyl)-[1,2,4]oxadiazol-5(4H)-one] | 93 | 23 | 49 | 77 |
| CCOc1cc(-c2cc(NCCc3c(F)cc(Br)cc3F)ncn2)ccc1Cc1noc(=O)[nH]1 [Example 282, 3-(4-{6-[2-(4-Bromo-2,6-difluoro-phenyl)-ethylamino]-pyrimidin-4-yl}-2-ethoxy-benzyl)-[1,2,4]oxadiazol-5(4H)-one] | 1030 | 380 | 83 | 135 |
| CCOc1cc(-c2cc(NCCc3c(F)cc(Br)cc3F)ncn2)sc1-c1noc(=S)[nH]1 [Example 295, 3-(5-{6-[2-(4-Bromo-2,6-difluoro-phenyl)-ethylamino]-pyrimidin-4-yl}-3-ethoxy-thiophen-2-yl)-[1,2,4]oxadiazole-5(4H)-thione] | 84 | 2 | 2 | 12 |
| CCOc1cc(-c2cc(NCCc3c(F)cc(Br)cc3F)ncn2)sc1C(N)=O [Example 279, 5-{6-[2-(4-Bromo-2,6-difluoro-phenyl)-ethylamino]-pyrimidin-4-yl}-3-ethoxy-thiophene-2-carboxylic acid amide] | 72 | 12 | 5 | 46 |
| CCn1cc(-c2cc(NCCc3c(F)cc(Br)cc3F)ncn2)cc1-c1noc(=O)[nH]1 [Example 278] | 150 | 89 | 42 | 64 |
| CCCCOc1cc(-c2cc(NCCc3c(F)cc(Br)cc3F)ncn2)cc(F)c1C(=O)O [Example 167, 4-{6-[2-(4-Bromo-2,6-difluoro-phenyl)-ethylamino]-pyrimidin-4-yl}-2-butoxy-6-fluoro-benzoic acid] | 198 | 1080 | 431 | 42 |
| CCOc1cc(-c2cc(NCCc3c(F)cc(Br)cc3F)ncn2)ccc1Cc1noc(=S)[nH]1 [Example 283, 3-(4-{6-[2-(4-Bromo-2,6-difluoro-phenyl)-ethylamino]-pyrimidin-4-yl}-2-ethoxy-benzyl)-[1,2,4]oxadiazole-5(4H)-thione] | 959 | 595 | 245 | 118 |
| CCOc1cc(-c2cc(NCCc3c(F)cc(Br)cc3F)ncn2)sc1CC(=O)O [Example 48, (5-{6-[2-(4-Bromo-2,6-difluoro-phenyl)-ethylamino]-pyrimidin-4-yl}-3-ethoxy-thiophen-2-yl)-acetic acid] | 46 | 51 | 25 | 28 |
| O=C(O)c1ccc(-c2cc(NCCc3c(F)cc(Br)cc3F)ncn2)cc1OC1CCC1 [Example 42, 4-{6-[2-(4-Bromo-2,6-difluoro-phenyl)-ethylamino]-pyrimidin-4-yl}-2-cyclobutoxy-benzoic acid] | 50 | 297 | 241 | 59 |
| O=C(O)Cc1ccc(-c2cc(NCCc3c(F)cc(Br)cc3F)ncn2)cc1OC(F)F [Example 252, (4-{6-[2-(4-Bromo-2,6-difluoro-phenyl)-ethylamino]-pyrimidin-4-yl}-2-difluoromethoxy-phenyl)-acetic acid] | 1910 | 959 | 484 | 214 |
| CCOc1cc(-c2cc(NCCc3ccc(O)c(OC)c3)ncn2)sc1-c1noc(=O)[nH]1 [Example 118, 3-(3-Ethoxy-5-{6-[2-(4-hydroxy-3-methoxy-phenyl)-ethylamino]-pyrimidin-4-yl}-thiophen-2yl)-[1,2,4]oxadiazol-5(4H)-one] | 266 | 148 | 316 | 488 |
| CCOc1cc(-c2cc(NCCc3ccccc3C)ncn2)sc1C(=O)O [Example 55, 3-Ethoxy-5-[6-(2-o-tolyl-ethylamino)-pyrimidin-4-yl]-thiophene-2-carboxylic acid] | 65 | 396 | 1000 | 89 |
| CCOc1cc(-c2cc(NCCc3ccc(Br)c(C)c3)ncn2)sc1-c1noc(=O)[nH]1 [Example 113, 3-(5-{6-[2-(4-Bromo-3-methyl-phenyl)-ethylamino]-pyrimidin-4-yl}-3-ethoxy-thiophen-2-yl)-[1,2,4]oxadiazol-5(4H)-one] | 113 | 29 | 3 | 47 |
| CCOc1cc(-c2cc(NCCc3ccc(Br)c(Cl)c3)ncn2)sc1-c1noc(=O)[nH]1 [Example 106, 3-(5-{6-[2-(4-Bromo-3-chloro-phenyl)-ethylamino]-pyrimidin-4-yl}-3-ethoxy-thiophen-2-yl)-[1,2,4]oxadiazol-5(4H)-one] | 49 | 10 | 1 | 35 |
| O=c1[nH]c(-c2sc(-c3cc(NCCc4c(F)cc(Br)cc4F)ncn3)cc2C(F)(F)F)no1 [Example 133, 3-(5-{6-[2-(4-Bromo-2,6-difluoro-phenyl)-ethylamino]-pyrimidin-4-yl}-3-trifluoromethyl-thiophen-2-yl)-[1,2,4]oxadiazol-5(4H)-one] | 92 | 44 | 13 | 13 |
| CCOc1cc(-c2cc(NCCc3cc(C)c(Br)cc3F)ncn2)sc1-c1noc(=O)[nH]1 [Example 114, 3-(5-{6-[2-(4-Bromo-2-fluoro-5-methyl-phenyl)-ethylamino]-pyrimidin-4-yl}-3-ethoxy-thiophen-2yl)-[1,2,4]oxadiazol-5(4H)-one] | 27 | 8 | 3 | 15 |
| CCOc1cc(-c2cc(NCCc3cc(Cl)ccc3Br)ncn2)sc1-c1noc(=O)[nH]1 [Example 94, 3-(5-{6-[2-(2-Bromo-5-chloro-phenyl)-ethylamino]-pyrimidin-4-yl}-3-ethoxy-thiophen-2-yl)-[1,2,4]oxadiazol-5(4H)-one] | 82 | 93 | 90 | 79 |
| Cc1ccc(CCNc2cc(-c3cc(F)c(C(=O)O)s3)ncn2)cc1 [Example 1, 3-Fluoro-5-[6-(2-p-tolyl-ethylamino)-pyrimidin-4-yl]thiophene-2-carboxylic acid] | 86 | 65 | 402 | 240 |
| COc1cc(C(F)F)c(F)cc1CCNc1cc(-c2ccc(C(=O)O)c(SC)c2)ncn1 [Example 187, 4-{6-[2-(4-Difluoromethyl-5-fluoro-2-methoxy-phenyl)-ethylamino]-pyrimidin-4-yl}-2-methylsulfanyl-benzoic acid] | 260 | 200 | 216 | 130 |
| CCOc1cc(-c2cc(NCCc3ccc(Cl)cc3C#N)ncn2)sc1-c1noc(=O)[nH]1 [Example 96] | 58 | 106 | 43 | 24 |
| CCOc1cc(C(F)(F)F)ccc1CCNc1cc(-c2ccc(C(=O)O)c(OCC)c2)ncn1 [Example 211, 2-Ethoxy-4-{6-[2-(2-ethoxy-4-trifluoromethyl-phenyl)-ethylamino]-pyrimidin-4-yl}-benzoic acid] | 148 | 170 | 126 | 106 |
| Cc1cc(-c2cc(NCCc3c(F)cc(Br)cc3F)ncn2)cc(C)c1O [Example 250, 4-{6-[2-(4-Bromo-2,6-difluoro-phenyl)-ethylamino]-pyrimidin-4-yl}-2,6-dimethyl-phenol] | 856 | 887 | 169 | 78 |
